This is an account of results in patent US20090233965A1, “Alkyl Esters Of Cyclic Amino Alcohols With Muscarinic M3 Receptor Antagonist Activity, Useful For Treating E.G. Chronic Bronchial Obstruction, Asthma And Overactive Bladder” (priority 2006, published 2009).

Read-outs that look alike come from different tables or passages of the source.

This test deals with human muscarinic acetylcholine M3 receptor (M3-ACh) (Homo sapiens, UniProt P20309). Kind of test: M3 Receptor Activity Assay: competition binding of [3H]N-methyl scopolamine, SPA format.
Where [1] appears, read: competition binding of [3H]NMS at 0.2 nM to CHO-K1 cell membranes expressing human M3 receptor, 16 hours at room temperature, read-out: pIC50 (converted).

human muscarinic acetylcholine M3 receptor (M3-ACh), sequence (P20309 whole entry): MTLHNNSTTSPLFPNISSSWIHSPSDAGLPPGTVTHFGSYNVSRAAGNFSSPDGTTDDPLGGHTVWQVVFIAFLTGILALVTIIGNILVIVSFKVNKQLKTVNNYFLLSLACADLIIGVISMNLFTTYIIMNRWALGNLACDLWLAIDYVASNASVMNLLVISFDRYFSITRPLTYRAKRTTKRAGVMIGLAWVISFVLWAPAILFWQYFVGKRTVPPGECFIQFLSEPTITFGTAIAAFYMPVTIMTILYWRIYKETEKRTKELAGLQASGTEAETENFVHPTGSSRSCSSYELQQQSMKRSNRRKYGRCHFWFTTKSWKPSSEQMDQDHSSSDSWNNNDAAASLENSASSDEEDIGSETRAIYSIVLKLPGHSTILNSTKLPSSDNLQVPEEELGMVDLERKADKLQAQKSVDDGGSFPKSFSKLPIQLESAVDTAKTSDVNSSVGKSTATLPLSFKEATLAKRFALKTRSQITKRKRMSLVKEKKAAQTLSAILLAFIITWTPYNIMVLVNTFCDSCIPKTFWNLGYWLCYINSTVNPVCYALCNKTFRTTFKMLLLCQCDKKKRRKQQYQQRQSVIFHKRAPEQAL
Procedure: The assay was conducted in a final volume of 200 μL, in the presence of 1% (v/v) dimethyl sulphoxide (DMSO). Total binding of [^3H]NMS was determined in the absence of competing compound and non-specific binding of [3H]NMS was determined in the presence of 1 μM atropine. The plates were incubated for 16 hours at room temperature and then read on Wallac Microbeta™ using a normalised ^3H protocol.

In the case of `Cc1ccc(C(C)(C(=O)OC2CC[N+](C)(C)CC2)C2CCCC2)s1` (stereo not drawn) [Example 9, 4-{[2-Cyclopentyl-2-(5-methyl-2-thienyl)propanoyl]oxy}-1,1-dimethylpiperidinium iodide], under setting [1], the IC50 is 79.4 pM. On the same count and under the same terms, in the case of `CC(C(=O)OC1CC[N+](C)(C)CC1)(c1ccc(Cl)cc1)C1CCCC1` (stereo not drawn) [Example 19, 4-{[2-(4-Chlorophenyl)-2-cyclopentylpropanoyl]oxy}-1,1-dimethylpiperidinium iodide] it was 200 pM. In the case of `CC(C(=O)OC1CC[N+](C)(C)CC1)(c1ccccc1)C1CC1` (stereo not drawn) [Example 3, 4-[(2-Cyclopropyl-2-phenylpropanoyl)oxy]-1,1-dimethylpiperidinium iodide], the IC50 is 398 pM.
